Measured values from patent publication US20120225909A1, “INDAZOLE ANALOG” (priority 2009, published 2012).

Legend:
Type in all cases: cell-based
[1] = biological target: T1, human β3-adrenergic receptor (Homo sapiens, UniProt P13945); experiment: Test Case 1-B: human β3-adrenergic receptor agonist activity (cAMP-Screen, 96-well); settings: for Emax: 0.5 h, read-out: β3 receptor I.A.; for EC50 / β3 receptor I.A.: Test Case 1-B; for EC50: CHO cells, cAMP; for β3 receptor I.A.: maximum response of isoproterenol = 100%
T1 construct: A full-length human β3 gene is obtained from a human genomic library (made by Clontech) using this as the probe; expressed in transfected cells; host or cells: CHO (Chinese hamster ovary) cells, pcDNA3
T1 sequence (P13945 whole entry): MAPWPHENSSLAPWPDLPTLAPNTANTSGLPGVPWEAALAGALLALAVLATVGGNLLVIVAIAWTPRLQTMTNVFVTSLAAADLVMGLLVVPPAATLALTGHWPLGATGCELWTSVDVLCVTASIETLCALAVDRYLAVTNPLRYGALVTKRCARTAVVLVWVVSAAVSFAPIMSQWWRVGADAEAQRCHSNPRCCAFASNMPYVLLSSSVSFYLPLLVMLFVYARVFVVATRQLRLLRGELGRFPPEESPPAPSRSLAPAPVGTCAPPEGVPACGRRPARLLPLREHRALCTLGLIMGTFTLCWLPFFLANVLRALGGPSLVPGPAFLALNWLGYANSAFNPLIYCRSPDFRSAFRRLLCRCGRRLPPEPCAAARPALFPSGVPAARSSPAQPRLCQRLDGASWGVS
Experimental: Measurement of Human β3-Adrenergic Receptor Agonist Activity
The human β3-adrenergic receptor agonist activity is measured using CHO (Chinese hamster ovary) cells transfected by a human β3 gene inserted in pcDNA3 (Invitrogen). […] A full-length human β3 gene is obtained from a human genomic library (made by Clontech) using this as the probe. These cells are cultured in Ham's F-12 medium containing 10% fetal calf serum and 400 μg/mL genectin (Invitrogen). These cells are sown in 96-well plates to make 2×10^4 cells/well. After culturing for approximately 20 hours, they are allowed to stand for 15 minutes in 80 μL of serum-free Ham's F-12 medium. After first dissolving the test compound by DMSO, it is serially diluted by Ham's F-12 containing 100 mmol/L HEPES and 1 mmol/L isobutylmethylxanthine, and 20 μL is added to the cells. After culturing for 30 minutes, the medium is removed, and 0.1 mL of the assay/lysis buffer contained in the cAMP-Screen kit (made by Applied Bioscience) is added and incubated for 30 minutes at 37° C. The cAMP in this cell lysate is assayed by the above cAMP-Screen kit.

[2] = biological target: T2, human α1A-adrenergic receptor (Homo sapiens, UniProt P35348); experiment: Test Case 4-A: human α1A-adrenergic receptor agonist activity (HEK293, Ca flux, Fura-2); parameters: expressed in transfected cells; host or cells: HEK293 cells, pcDNA3.1; settings: for Emax: HEK293, read-out: α1A receptor I.A.; for EC50 / α1A receptor I.A.: Test Case 4-A, Table 4; for EC50: HEK293 cells, Ca flux; for α1A receptor I.A.: maximum response of norepinephrine = 100%
T2 sequence (P35348 1-466): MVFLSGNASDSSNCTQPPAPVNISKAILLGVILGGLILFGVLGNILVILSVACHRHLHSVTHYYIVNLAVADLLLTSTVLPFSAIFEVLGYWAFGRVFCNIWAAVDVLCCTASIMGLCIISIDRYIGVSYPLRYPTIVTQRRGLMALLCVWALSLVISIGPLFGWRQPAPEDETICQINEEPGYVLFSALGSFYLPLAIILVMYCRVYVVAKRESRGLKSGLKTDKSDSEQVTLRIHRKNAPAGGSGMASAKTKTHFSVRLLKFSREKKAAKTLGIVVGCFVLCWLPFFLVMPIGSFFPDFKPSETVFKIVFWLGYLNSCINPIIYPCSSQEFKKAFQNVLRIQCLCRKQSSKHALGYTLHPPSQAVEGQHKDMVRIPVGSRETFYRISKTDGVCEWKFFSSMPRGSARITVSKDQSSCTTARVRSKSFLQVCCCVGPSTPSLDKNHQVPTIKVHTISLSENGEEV
Experimental: (§1) Measurement of Human α1A-Adrenergic Receptor Agonist Activity
The human α1A-adrenergic receptor agonist activity is measured using HEK293 cells transfected by a human α1A gene inserted in pcDNA3.1 (Invitrogen). […] After loading for 30 minutes in a CO2 incubator, the excess Fura-2AM is removed by washing twice with assay buffer. After preparing the centrifuged cells to make 5×10^6 cells/mL by assay buffer, 80 μL/well is dispensed into 96-well UV plates (made by Corning) to make cell plates. Sample plates with the test compound diluted 10-fold by assay buffer from 10^−5 to 10^−12 M and cell plates are set in an FDSS4000 (made by Hamamatsu Photonics). After preincubating for 180 seconds, measurement of fluorescence intensity (excitation wavelength 340 nm, 380 nm, measurement wavelength 500 nm) is begun at 2-second intervals. After approximately 30 seconds of measurement, 20 μL of test sample from a sample plate is added to the cell plate, and measurement is continued for another 270 seconds. The Ca flux caused by the test compound is calculated taking the difference in the maximum value of the fluorescence intensity ratio at 340 nm and 380 nm after adding the test compound and the fluorescence intensity ratio before adding the test compound as the peak height.

[3] = biological target: T3, human β2-adrenergic receptor (Homo sapiens, UniProt P07550); experiment: Test Case 3-B: human β2-adrenergic receptor agonist activity; settings: for Emax: read-out: β2 receptor I.A.
T3 construct: expressed in transfected cells; host or cells: CHO (Chinese hamster ovary) cells, pcDNA3
T3 sequence (P07550 whole entry): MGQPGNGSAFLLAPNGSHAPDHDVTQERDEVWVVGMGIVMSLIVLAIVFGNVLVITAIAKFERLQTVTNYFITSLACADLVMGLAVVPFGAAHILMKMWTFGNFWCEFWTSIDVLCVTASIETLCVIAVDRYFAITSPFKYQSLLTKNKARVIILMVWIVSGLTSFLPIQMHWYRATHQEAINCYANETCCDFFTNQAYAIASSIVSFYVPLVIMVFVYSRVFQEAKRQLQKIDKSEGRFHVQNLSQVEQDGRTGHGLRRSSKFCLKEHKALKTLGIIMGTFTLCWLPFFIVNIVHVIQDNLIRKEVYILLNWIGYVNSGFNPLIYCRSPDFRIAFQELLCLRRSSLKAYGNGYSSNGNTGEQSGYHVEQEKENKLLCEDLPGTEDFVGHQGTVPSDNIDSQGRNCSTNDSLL
Experimental: Measurement of Human β2-Adrenergic Receptor Agonist Activity
The human β2-adrenergic receptor agonist activity is measured by the same method as in Test Case 1-B using CHO (Chinese hamster ovary) cells transfected by a human β2 gene inserted in pcDNA3 (Invitrogen).

[4] = biological target: T4, human β1-adrenergic receptor (Homo sapiens, UniProt P08588); experiment: Test Case 2-B: human β1-adrenergic receptor agonist activity; settings: for Emax: read-out: β1 receptor I.A.
T4 construct: expressed in transfected cells; host or cells: CHO (Chinese hamster ovary) cells, pcDNA3
T4 sequence (P08588 whole entry): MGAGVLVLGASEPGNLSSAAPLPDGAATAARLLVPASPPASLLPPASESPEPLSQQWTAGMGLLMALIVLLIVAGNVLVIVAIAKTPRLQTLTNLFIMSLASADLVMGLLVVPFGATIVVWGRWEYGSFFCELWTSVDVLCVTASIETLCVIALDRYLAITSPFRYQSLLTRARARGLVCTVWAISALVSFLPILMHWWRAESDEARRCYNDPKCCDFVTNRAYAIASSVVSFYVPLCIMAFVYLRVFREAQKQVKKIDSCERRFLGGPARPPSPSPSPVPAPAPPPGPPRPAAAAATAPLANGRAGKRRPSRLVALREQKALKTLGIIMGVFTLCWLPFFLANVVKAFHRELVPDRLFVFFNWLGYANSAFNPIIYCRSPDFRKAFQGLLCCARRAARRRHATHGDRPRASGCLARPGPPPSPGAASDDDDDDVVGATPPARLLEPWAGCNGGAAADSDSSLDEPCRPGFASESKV
Experimental: Measurement of Human β1-Adrenergic Receptor Agonist Activity
The human β1-adrenergic receptor agonist activity is measured by the same method as in Test Case 1-B using CHO (Chinese hamster ovary) cells transfected by a human β1 gene inserted in pcDNA3 (Invitrogen).

[5] = biological target: T2, human α1A-adrenergic receptor; experiment: Test Case 4-B: human α1A-adrenergic receptor agonist activity (Cerep cellular functional GPCR, alpha 1A); parameters: expressed in transfected cells; settings: concentration 10 μM; for α1 receptor % of Control Agonist Response, Control; Epinephrine: epinephrine = 100%
Source text: as §1
The human α1A-adrenergic receptor agonist activity] can be measured by […] Functional GPCR·Gs, alpha 1A (Ref. 722-36a) listed on p. 52 of the Cerep 2008 CATALOG IN VITRO PHARMACOLOGY & ADME-TOX.

Row | Emax [1] [%] | EC50 [1] [nM] | Emax [2] [%] | Compound | also measured
1 |  |  | 100 | NC[C@H](O)c1ccc(O)c(O)c1 [Norepinephrine, reference compound] | α1 receptor % of Control Agonist Response, Control; Epinephrine [5]: 116%; α1 receptor % of Control Agonist Response, Control; Norepinephrine ([5]; norepinephrine = 100%): 100%; α1A receptor I.A. [2]: 100%
2 | 62 | 248 | 0 | Cc1n[nH]c2cc(OCCNC[C@H](O)c3cccc(NS(=O)(=O)c4ccc(Cl)cc4)c3)ccc12 [ex52, (R)-4-chloro-N-(3-(1-hydroxy-2-(2-(3-methylindazol-6-yloxy)ethylamino)ethyl)phenyl) benzenesulfonamide] | 
3 | 89 | 31 | 75 | COc1n[nH]c2cc(OCCNC[C@H](O)c3cccc(NS(=O)(=O)C4CCC4)c3)ccc12 [ex38, (R)-N-(3-(1-hydroxy-2-(2-(3-methoxyindazol-6-yloxy)-ethylamino)ethyl)phenyl)cyclo-butanesulfonamide] | EC50 [2]: 378 nM
4 | 47 | 23 | 0 | CCc1n[nH]c2cc(OCCNC[C@H](O)c3cccc(NS(=O)(=O)c4cccc(Cl)c4)c3)ccc12 [ex119, (R)-3-chloro-N-(3-(2-(2-(3-ethylindazol-6-yloxy)-ethylamino)-1-hydroxyethyl)-phenyl) benzenesulfonamide] | 
5 | 53 | 2.8 | 0 | CCc1n[nH]c2cc(OCCNC[C@H](O)c3cccc(NS(=O)(=O)c4cccnc4)c3)ccc12 [ex121, (R)-N-(3-(2-(2-(3-ethylindazol-6-yloxy)ethylamino)-1-hydroxyethyl)phenyl) pyridine-3-sulfonamide] | 
6 | 34 | 14 | 15 | CCc1n[nH]c2cc(OCCNC[C@H](O)c3cccc(NS(=O)(=O)CC(F)(F)F)c3)ccc12 [ex125, (R)-N-(3-(2-(2-(3-ethylindazol-6-yloxy)ethylamino)-1-hydroxyethyl)phenyl)-2,2,2-trifluoro ? sulfonamide] | 
7 | 18 |  | 0 | Cc1n[nH]c2cc(OCCNC[C@H](O)c3cccc(NS(=O)(=O)c4cn(C)cn4)c3)ccc12 [ex50, (R)-N-(3-(1-hydroxy-2-(2-(3-methylindazol-6-yloxy)ethylamino)ethyl)phenyl)-1-methylimidazole-4-sulfonamide] | 
8 |  |  |  | CNC[C@H](O)c1ccc(O)c(O)c1 [Epinephrine, epinephrine, reference compound] | α1 receptor % of Control Agonist Response, Control; Epinephrine [5]: 100%
9 | 91 | 85 | 1 | O=S(=O)(Nc1cccc([C@@H](O)CNCCOc2ccc3c(C(F)(F)F)n[nH]c3c2)c1)c1ccccc1F [ex189, (R)-2-fluoro-N-(3-(1-hydroxy-2-(2-(3-(trifluoromethyl)-indazol-6-yloxy)ethylamino)ethyl)phenyl)benzene-sulfonamide] | 
10 | 85 | 5.4 | 61 | CCc1n[nH]c2cc(OCCNC[C@H](O)c3cccc(NS(=O)(=O)C4CCC4)c3)ccc12 [ex150] | EC50 [2]: 1280 nM
11 |  |  |  | O=S(=O)(Nc1cccc([C@@H](O)CNCCOc2ccc3c(OC(F)F)n[nH]c3c2)c1)c1ccccn1 [ex117, (R)-N-(3-(2-(2-(3-(difluoromethoxy)-indazol-6-yloxy)ethylamino)-1-hydroxyethyl)phenyl)pyridine-2-sulfonamide] | β3 receptor I.A. [1]: 54%; α1A receptor I.A. [2]: 0%
12 | 72 | 72 | 89 | O=S(=O)(Nc1cccc([C@@H](O)CNCCOc2ccc3c(CO)n[nH]c3c2)c1)C1CCC1 [ex243, (R)—N-(3-(1-hydroxy-2-(2-(3-(hydroxymethyl)indazole-6-yloxy)ethylamino)ethyl)phenyl)cyclobutanesulfonamide] | EC50 [2]: 44 nM

Row | Compound | Emax [1] [%] | EC50 [1] [nM] | Emax [2] [%] | also measured
13 | O=S(=O)(Nc1cccc([C@@H](O)CNCCOc2ccc3c(C(F)(F)F)n[nH]c3c2)c1)C1CC1 [ex181, (R)-N-(3-(1-hydroxy-2-(2-(3-(trifluoromethyl)indazol-6-yloxy)ethylamino)ethyl)phenyl) cyclopropane-sulfonamide] | 80 | 16 | 4 | Emax [3]: 8%; Emax [4]: 1%
14 | COc1n[nH]c2cc(OCCNC[C@H](O)c3cccc(NS(=O)(=O)C4CC4)c3)ccc12 [ex47, (R)-N-(3-(1-hydroxy-2-(2-(3-methoxyindazol-6-yloxy)-ethylamino)ethyl)phenyl)cyclo-propanesulfonamide] |  | 41 |  | β3 receptor I.A. [1]: 72%; EC50 [2]: 1220 nM; α1A receptor I.A. [2]: 28%; β2 receptor I.A. ([3]; Test Case 3-B, maximum response of isoproterenol = 100%): 16%; β1 receptor I.A. ([4]; Test Case 2-B, maximum response of isoproterenol = 100%): 3%
15 | COc1n[nH]c2cc(OCCNC[C@H](O)c3cccc(NS(=O)(=O)c4cccc(N)c4)c3)ccc12 [ex1, (R)-3-amino-N-(3-(1-hydroxy-2-(2-(3-methoxyindazol-6-yloxy)ethylamino)ethyl)phenyl)benzenesulfonamide] | 110 | 0.52 | 0 | Emax [3]: 1%; Emax [4]: 6%
16 | CC(C)c1n[nH]c2cc(OCCNC[C@H](O)c3cccc(NS(=O)(=O)c4cccc(N)c4)c3)ccc12 [ex231, (R)-3-amino-N-(3-(1-hydroxy- ? -(2-( ? iso-propylindazol- ? - yloxy)ethylamino)ethyl)phenyl) benzene ? fonamide] | 124 | 0.2 | 0 | Emax [3]: 3%; Emax [4]: 18%
17 | COc1n[nH]c2cc(OCCNC[C@H](O)c3cccc(NS(=O)(=O)C4CC4)c3)ccc12 [ex17, (R)-N-( ? -(1-hydroxy-2-(2-(3-methoxyindazol-6-yloxy)ethylamino)ethyl)phenyl)cy ?] | 70 | 39 | 13 | Emax [3]: 12%; Emax [4]: 1%
18 | Cc1cccc(S(=O)(=O)Nc2cccc([C@@H](O)CNCCOc3ccc4c(C)n[nH]c4c3)c2)c1 [ex49, (R)-N-(3-(1-hydroxy-2-(2-(3-methylindazol-6-yloxy)ethylamino)ethyl)phenyl)-3-methyl] | 96 | 2.5 | 0 | Emax [3]: -3%; Emax [4]: 10%
